Test results from PMC9699638, “Study of Membrane-Immobilized Oxidoreductases in Wastewater Treatment for Micropollutants Removal” (International Journal of Molecular Sciences, 2022).
Where a name gives a salt, the structure may show the parent alone.

Tests used:
[1] = test system: T1, horseradish peroxidase (HRP); conditions: free enzyme; 50 mM phosphate buffer pH 7; co-substrate H2O2 (10 mM); apparent
T1 construct: gene PRXC1A

laccase = test system: T2, laccase; conditions: free enzyme; 50 mM acetate buffer pH 5; apparent
T2 construct: gene LCC2

Km [1]: 1330 µM
Km (laccase): 87 µM
Compound: CCn1c(=NN=c2sc3cc(S(=O)(=O)O)ccc3n2CC)sc2cc(S(=O)(=O)O)ccc21 [2,2′-azino-bis(3-ehylbenzothiazoline-6-sulfonic acid), diammonium salt]
